Where two headings read alike, the source gives them in different places.
Columns and labels:
[1] = tested on: C. elegans RB2119 (acr-23(ok2804), monepantel-resistant); assay: IC50 on amino-acetonitrile resistant C. elegans strain; format: in vivo, Caenorhabditis elegans; conditions: 5 days exposure, 2 L4 per well, three biological replicates, read-out: IC50, strain RB2119 (amino-acetonitriles)
[2] = tested on: C. elegans VC3631 (mev-1 gk3613, D19 resistant); assay: IC50 on CID 2747322 resistant C. elegans strain VC3631; format: in vivo, Caenorhabditis elegans; conditions: 5 days exposure, 2 L4 per well, three biological replicates
Protocol: (§1) All compound libraries were stored in 96-well plates, with 80 drugs per plate (columns 1 and 12 left empty). A BioGrid BG600 pinning robot (Digilab / BioRobotics) was used for compound transfer. The robot uses a 96-pin tool (0.7 mm dia.) to transfer a nominal volume of 340 nL of compound. For retesting, compounds were hand pinned from the original library plates to assay plates using a single 0.7 mm dia. pin. The assay plates were 96-well clear flat-bottom microplates containing 2% χ1666 E.coli bacteria in 0.5X Liquid Nematode Growth Media (LNGM) plus cholesterol (Bacteria were mass-grown in rich media, and harvested by centrifugation to produce a thick paste of bacterial cells that was kept frozen at -20°C. Cells were resuspended at 2% W/V in 0.5X LNGM to produce liquid worm food). Using a COPAS Biosort (Union Biometrica), two L4 to young adult stage VC2010 worms were added to each well of the plate in a final volume of 45 μL. After five days of exposure to the compounds, the plates were scanned and the data analyzed. A five day time period was chosen to be able to observe effects over all stages of the life cycle and through at least one round of replication. The initial proof-of-principle primary screen was performed manually using a dissecting microscope. Phenotypes scored included decreased motility, reduced brood size, and/or death as described previously. For high throughput screening of the Chembridge and Maybridge compound libraries we used the program WormScan, which was adapted for screening 96-well flat-bottom LNGM plates. Using WormScan it was possible to screen four 96-well plates at a time. Plates were scanned twice, at a resolution of 1200 dots per inch, 16-bit grayscale, producing a jpeg image. The light intensity produced by the scanner was sufficient to cause negative phototaxis equivalent to a physical stimulus for mortality determination. The time required to scan four 96-well plates using an Epson Perfection V700 Photo Scanner was less than ten minutes. The time to screen a single plate was less than 1.2 minutes, with less than ten seconds between scans.
(§2) WormScan was used to screen for the same phenotypes as in the manual screen (reduced brood size, reduced behavior/motility response and increased mortality). Two sequential scans for each 96-well plate were aligned to a reference region of interest (ROI). Image analysis was based on a difference image score calculated for each ROI. The difference image score (WormScan score) was normalized using a “percent of control” method to derive a normalized WormScan score. […] Wild-type growth in 1% DMSO (Fig 1A) results in a normalized WormScan score of 100. Exposure to 50 nM ivermectin gives a score of 0 (Fig 1C), and complete absence of worms gives a score of 0 (Fig 1D). For the primary screen the WormScan score was calculated using custom macro scripts written for Fiji. For secondary screening and any subsequent studies the WormScan score was calculated using a standalone Java program (See supplemental). Probit regression of mortality was calculated using Mathematica 8.0.
(§3) A standard ethyl methanesulfonate (EMS) mutagenesis protocol was carried out using VC2010 in order to generate mutants resistant to CID 2747322 exposure. First larval stage (L1) F2 progeny of mutagenized P0s were exposed to CID 2747322 at 200 μM in liquid worm food in 24-well tissue culture plates for five days at room temperature, and two independently isolated resistant lines (VC3614 and VC3615) were identified. […]

[3] = tested on: C. elegans CB3474 (ben-1(e1880), benomyl resistant); assay: IC50 on benzimidazole resistant C. elegans strain; format: in vivo, Caenorhabditis elegans; conditions: 5 days exposure, 2 L4 per well, three biological replicates
[4] = tested on: C. elegans VC2010 (wild type); assay: WormScan screen of C. elegans growth, fecundity, motility and mortality; format: in vivo, Caenorhabditis elegans; parameters: normalized WormScan score: dose or concentration left out as unconfirmed
Protocol: as §1, §2

[5] = tested on: C. elegans DA1316 (avr-14(ad1302); avr-15(vu227); glc-1(pk54), ivermectin resistant); assay: IC50 on ivermectin resistant C. elegans strain; format: in vivo, Caenorhabditis elegans; conditions: 5 days exposure, 2 L4 per well, three biological replicates
[6] = tested on: C. elegans CB193 (unc-29(e193), levamisole resistant); assay: IC50 on levamisole resistant C. elegans strain; format: in vivo, Caenorhabditis elegans; conditions: 5 days exposure, 2 L4 per well, three biological replicates
[7] = tested on: C. elegans VC3635 (pink-1 gk3615, D19 resistant); assay: IC50 on CID 2747322 resistant C. elegans strain VC3635; format: in vivo, Caenorhabditis elegans; conditions: 5 days exposure, 2 L4 per well, three biological replicates
Protocol: as §1, §2, §3

A. suum complex II = tested on: A. suum complex II; parameters: method as in PMID 26198225; conditions: cited from earlier work
porcine complex II = tested on: porcine complex II; parameters: method as in PMID 26198225; conditions: cited from earlier work
[8] = tested on: Human embryonic kidney (HEK293) cells; assay: HEK293 viability, MTT colorimetric assay; format: cell-based; conditions: read-out: Mammalian IC50
Protocol: Potential anthelmintic compounds identified from primary screening were further tested against mammalian cells and yeast to determine whether they had deleterious effects in those organisms. Human embryonic kidney (HEK293) cells were grown in Dulbecco’s Modified Eagle’s Medium (DMEM; Sigma) containing 5% fetal bovine serum (FBS; Sigma) in 96-well plates tissue culture plates. Compounds were added 24h post-plating at 10, 30, 100, or 300 μM final concentrations. Dimethyl sulfoxide (DMSO) was used as a negative control at 0.1%. Cells were treated for 24 or 48 hours, after which time viability was assessed using a 3-(4,5-dimethylthiazol-2-yl)-2,5-diphenyltetrazolium bromide (MTT) colorimetric assay. Percent viability was determined by comparing treatment values to DMSO control values.

C. elegans VC2010 [9] = assay: Manual inspection of growth, brood size, developmental stage and recovery of C. elegans in drug; format: in vivo, Caenorhabditis elegans; conditions: L1s removed from the drug
Protocol: WormScan is a powerful tool to identify compounds with potential effects on the nematode, but it is still necessary to do manual inspection of wells with few animals to determine details of growth, behavior and fecundity. Wild-type worms grown in 90 μM CID 2747322 have brood sizes reduced by 97%. […] All current classes of anthelmintic have greater specificity towards certain life-stages. It is interesting that when removed from the drug L1s will recover and develop, and generally become fertile adults (See S3 Fig).
Supplementary file pntd.0005058.s002.tiff: S2 Fig Developmental stage of inhibition in C. elegans after CID 2747322 exposure. Ten VC2010 L1 stage C. elegans were sorted into a DMSO control well or 90 μM of CID 2747322. Nematodes were removed from the DMSO control or CID 2747322 after 24/48/72 hours and allowed to recover for 30 minutes on standard agar plates. (TIFF) Click here for additional data file.
Supplementary file pntd.0005058.s003.tiff: S3 Fig Development of C. elegans after removel from CID 2747322. Greater than 50 VC2010 L1 stage C. elegans were sorted into a DMSO control well or 90 μM of CID 2747322. Nematodes were removed from DMSO control or CID 2747322 after 2 days of exposure and left to recovery for 24/48/72 hours. (TIFF) Click here for additional data file.

[10] = tested on: S. cerevisiae yeast strain BY4743; assay: Yeast growth rate (OD600) dose titration; format: cell-based; conditions: BY4743, YPD, growth rate reduced by 50%
Protocol: The S. cerevisiae yeast strain BY4743 (MATa/α his3Δ1/his3Δ1 leu2Δ0/leu2Δ0 LYS2/lys2Δ0 met15Δ0/MET15 ura3Δ0/ura3Δ0) was used for all yeast experiments and was grown using yeast extract peptone dextrose (YPD) media at pH 7 [52]. BY4743 was grown overnight to initial log phase and was then grown with the compound identified in the C. elegans assay. The growth rate was quantified by continuously monitoring the optical density of the liquid yeast growth at OD600. The compound was screened in a dose-titration in YPD as described. The IC50 was the concentration required to reduce the growth rate or Average G value by 50% compared to a vehicle control (2% DMSO).

C. elegans VC2010 [11] = assay: Manual phenotyping pilot screen of 3,584 known compounds (CCBN library); format: in vivo, Caenorhabditis elegans; conditions: dissecting microscope, positively confirmed drugs of CCBN library
nematodes = tested on: nematodes; parameters: method as in PMID 10924467; conditions: cited from earlier work
[12] = Caenorhabditis elegans, 120 h, 5 days exposure, 2 L4 per well, three biological replicates, read-out: IC50, strain VC2010 (wild type)
[13] = 5 days exposure, 2 L4 per well, three biological replicates, read-out: IC50, strain VC2010 (wild type)
[14] = C. elegans, 5 days exposure, read-out: Nematode IC50

## c1ccc([C@H]2CN3CCSC3=N2)cc1 [Levamisole]
[1]; Caenorhabditis elegans, 120 h
  IC50: 4 µM
[2]; Caenorhabditis elegans, 120 h
  IC50: 10 µM
[3]; Caenorhabditis elegans, 120 h
  IC50: 2 µM
[4]; [12]
  IC50: 4 µM
[5]; Caenorhabditis elegans, 120 h
  IC50: 8 µM
[6]; Caenorhabditis elegans, 120 h
  IC50: > 250 µM
[7]; Caenorhabditis elegans, 120 h
  IC50: 6 µM

## CC(C)Oc1cccc(NC(=O)c2ccccc2C(F)(F)F)c1 [flutolanil]
A. suum complex II
  IC50: 0.0245 µM
Porcine complex II
  IC50: 8.61 µM

## O=C(NCCc1ncc(C(F)(F)F)cc1Cl)c1ccccc1C(F)(F)F [Fluopyram, reference compound]
[8]; Homo sapiens
  IC50: 300 µM
C. elegans VC2010 [9]
  outcome after exposure / removal from drug: animals are killed
[4]; Caenorhabditis elegans, 120 h, read-out: Nematode IC50
  IC50: 0.05 µM
[10]; Saccharomyces cerevisiae
  IC50: > 1000 µM

## Ivermectin
[1]
  IC50: 0.01 µM
[2]
  IC50: 0.01 µM
C. elegans VC2010 [11]
  Worm Reaction in Drug: appears dead/paralyzed no progeny
[8]
  IC50: 300 µM
[3]
  IC50: 0.01 µM
[4]; 50 μM, five days exposure, normalized, DMSO control = 100
  WormScan Score: 0
[4]; [13]
  IC50: 0.03 µM
[4]; [14]
  IC50: 0.03 µM
[4]; normalized, DMSO control = 100
  normalized WormScan score: 0
[5]
  IC50: 7 µM
[6]
  IC50: 0.01 µM
[7]
  IC50: 0.01 µM
[10]
  IC50: > 1000 µM

## FC(F)(F)c1cc(NCc2ccccc2)nc(-c2ccccc2)n1 [CID 796072]
[1]
  IC50: 2 µM
[2]
  IC50: 11 µM
[8]
  IC50: 28 µM
[3]
  IC50: 2 µM
[4]; [13]
  IC50: 7 µM
[4]; C. elegans versus mammalian cells, Table 1
  greater sensitivity in C. elegans than in other organisms (nematode index): four-fold
[4]; [14]
  IC50: 7 µM
[5]
  IC50: 8 µM
[6]
  IC50: 3 µM
[7]
  IC50: 9 µM
[10]
  IC50: > 1000 µM

## c1ccc2[nH]cnc2c1 [Benzimidazole]
[1]; Caenorhabditis elegans, 120 h
  IC50: 28 µM
[2]; Caenorhabditis elegans, 120 h
  IC50: 91 µM
[3]; Caenorhabditis elegans, 120 h
  IC50: > 1000 µM
[4]; [12]
  IC50: 61 µM
[5]; Caenorhabditis elegans, 120 h
  IC50: 59 µM
[6]; Caenorhabditis elegans, 120 h
  IC50: 113 µM
[7]; Caenorhabditis elegans, 120 h
  IC50: 118 µM

## CC1(C)SC2C(N)C(=O)N2C1C(=O)O (stereo not drawn) [WACT162]
nematodes
  effect on nematodes: only reduces growth

## Cc1nn(S(=O)(=O)c2ccccc2)c(C)c1Oc1ccc(Cl)cc1 [CID 2745791]
[8]
  IC50: 54 µM
[4]; [14]
  IC50: 99 µM
[10]
  IC50: > 1000 µM

## O=C1c2ccc(-c3nc4cc(Cl)ccc4c(=O)o3)cc2C(=O)N1c1ccccc1-c1ccccc1 [CID 2222671]
[8]
  IC50: 234 µM
[4]; [14]
  IC50: > 500 µM
[10]
  IC50: > 1000 µM

## Cc1csc2sc(C(=O)CC(=O)C(F)(F)F)c(C)c12 [CID 2743002]
[8]
  IC50: 54 µM
[4]; [14]
  IC50: > 500 µM
[10]
  IC50: 20 µM

Reference: publication PMC5068747, “Using C. elegans Forward and Reverse Genetics to Identify New Compounds with Anthelmintic Activity” (PLoS Neglected Tropical Diseases, 2016)
